Experimental data taken from publication doi:10.1101/2025.10.30.685166v1 (biorxiv, 2025).

How the values were obtained:
[1] = target: T1, Hco-UNC-49B homomeric channel (Haemonchus contortus, UniProt D6BK80); assay: cell-based
T1 sequence (D6BK80 22-496): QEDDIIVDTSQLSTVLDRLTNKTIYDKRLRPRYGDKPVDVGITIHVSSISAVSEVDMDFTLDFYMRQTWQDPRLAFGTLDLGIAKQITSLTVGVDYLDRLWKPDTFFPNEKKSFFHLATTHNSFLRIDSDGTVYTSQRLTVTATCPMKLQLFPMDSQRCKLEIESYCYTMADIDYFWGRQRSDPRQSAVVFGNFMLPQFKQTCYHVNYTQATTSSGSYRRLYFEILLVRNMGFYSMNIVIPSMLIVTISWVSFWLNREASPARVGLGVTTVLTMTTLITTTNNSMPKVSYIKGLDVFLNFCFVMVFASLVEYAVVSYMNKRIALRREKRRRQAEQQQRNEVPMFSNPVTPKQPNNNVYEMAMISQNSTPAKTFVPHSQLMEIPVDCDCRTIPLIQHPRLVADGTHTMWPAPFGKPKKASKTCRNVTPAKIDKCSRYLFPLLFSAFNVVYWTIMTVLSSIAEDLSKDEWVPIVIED

[2] = target: T2, Hco-UNC-49B/Hco-UNC-49C heteromeric channel (Haemonchus contortus, UniProt D6BJF3+D6BK80); assay: cell-based
T2 sequence (D6BK80 22-496): T1 sequence (D6BK80 22-496)
T2 sequence (D6BJF3 22-440): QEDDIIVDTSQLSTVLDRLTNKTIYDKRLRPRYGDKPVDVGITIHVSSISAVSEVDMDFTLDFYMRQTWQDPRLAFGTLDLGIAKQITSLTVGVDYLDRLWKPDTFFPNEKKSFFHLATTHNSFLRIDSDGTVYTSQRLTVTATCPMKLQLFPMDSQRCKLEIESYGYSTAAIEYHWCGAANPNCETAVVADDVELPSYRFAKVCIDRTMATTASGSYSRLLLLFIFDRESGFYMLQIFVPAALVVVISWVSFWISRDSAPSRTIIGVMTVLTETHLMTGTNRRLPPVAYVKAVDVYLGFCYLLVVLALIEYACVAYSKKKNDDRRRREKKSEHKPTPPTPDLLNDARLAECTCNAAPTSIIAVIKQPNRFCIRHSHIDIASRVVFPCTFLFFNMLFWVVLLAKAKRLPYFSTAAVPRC

NCCCC(=O)O [GABA]
EC50 [1]: 137 ± 7 µM | EC50 [2]: 84.9 ± 4 µM
